Reference: US20120142646A1, “Novel Compounds 621” (priority 2006, published 2012)
Structures can show the parent of a compound that is named as a salt.

Target: T1, Adrenergic β2 (Homo sapiens, UniProt P07550)
T1 construct: Adherent H292 cells were removed from tissue culture flasks; endogenous in cells; host or cells: H292 cells
Experiment: Adrenergic β2 mediated cAMP production in H292 cells (AlphaScreen cAMP detection)
Type: cell-based
Parameters: key to β2 Int Act: fraction of formoterol maximum activity (formoterol = 1)
Conditions: Intrinsic Activity as a fraction relative to the maximum activity determined for formoterol
Protocol: Adrenergic β2 Mediated cAMP Production
H292 cells were grown in 225 cm2 flasks incubator at 37° C., 5% CO2 in RPMI medium containing, 10% (v/v) FBS (foetal bovine serum) and 2 mM L-glutamine.
Adherent H292 cells were removed from tissue culture flasks by treatment with Accutase™ cell detachment solution for 15 minutes. Flasks were incubated for 15 minutes in a humidified incubator at 37° C., 5% CO2. Detached cells were re-suspended in RPMI media (containing 10% (v/v) FBS and 2 mM L-glutamine) at 1×10^6 cells per mL. 10000 cells in 100 μL were added to each well of a tissue-culture-treated 96-well plate and the cells incubated overnight in a humidified incubator at 37° C., 5% CO2. The culture media was removed and cells were washed twice with 100 μL assay buffer and replaced with 50 μL assay buffer (HBSS solution containing 10 mM HEPES pH7.4 and 5 mM glucose). Cells were rested at room temperature for 20 minutes after which time 25 μL of rolipram (1.2 mM made up in assay buffer containing 2.4% (v/v) dimethylsulphoxide) was added. Cells were incubated with rolipram for 10 minutes after which time test compounds were added and the cells were incubated for 60 minutes at room temperature. The final rolipram concentration in the assay was 300 μM and final vehicle concentration was 1.6% (v/v) dimethylsulphoxide. The reaction was stopped by removing supernatants, washing once with 100 μL assay buffer and replacing with 50 μL lysis buffer. The cell monolayer was frozen at −80° C. for 30 minutes (or overnight).
AlphaScreen™ cAMP Detection
The concentration of cAMP (cyclic adenosine monophosphate) in the cell lysate was determined using AlphaScreen™ methodology. The frozen cell plate was thawed for 20 minutes on a plate shaker then 10 μL of the cell lysate was transferred to a 96-well white plate. 40 μL of mixed AlphaScreen™ detection beads pre-incubated with biotinylated cAMP, was added to each well and the plate incubated at room temperature for 10 hours in the dark. The AlphaScreen™ signal was measured using an EnVision spectrophotometer (Perkin-Elmer Inc.) with the recommended manufacturer's settings. cAMP concentrations were determined by reference to a calibration curve determined in the same experiment using standard cAMP concentrations. Concentration response curves for agonists were constructed and data was fitted to a four parameter logistic equation to determine both the pEC50 and Intrinsic Activity. Intrinsic Activity was expressed as a fraction relative to the maximum activity determined for formoterol in each experiment.

T1 sequence (P07550 whole entry): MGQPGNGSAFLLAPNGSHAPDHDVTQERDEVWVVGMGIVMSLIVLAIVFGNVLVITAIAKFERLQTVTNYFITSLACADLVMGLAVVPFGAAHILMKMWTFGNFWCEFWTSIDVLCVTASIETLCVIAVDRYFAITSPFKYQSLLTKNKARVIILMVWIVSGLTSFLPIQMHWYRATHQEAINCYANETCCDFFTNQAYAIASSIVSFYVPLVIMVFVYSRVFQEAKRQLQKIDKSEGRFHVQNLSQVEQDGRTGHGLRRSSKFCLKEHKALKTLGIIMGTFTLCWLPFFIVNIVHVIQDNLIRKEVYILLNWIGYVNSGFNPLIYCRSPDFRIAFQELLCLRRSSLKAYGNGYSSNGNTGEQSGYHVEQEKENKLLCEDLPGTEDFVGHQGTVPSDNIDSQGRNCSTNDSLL

Row | β2 Int Act | SMILES
1 | 0.93 | O=C(CCNCCc1cc(F)ccc1F)N(CCNCCc1ccc(O)c2[nH]c(=O)ccc12)C1CCCCC1 [Example 17, N-Cyclohexyl-3-(2,5-difluorophenethylamino)-N-(2-(2-(8-hydroxy-2-oxo-1,2-dihydroquinolin-5-yl)ethylamino)ethyl)propanamide bis(trifluoroacetate)]
2 | 0.95 | O=C(CCNCCc1cccc(F)c1F)N(CCNCCc1ccc(O)c2[nH]c(=O)ccc12)C1CCCCC1 [Example 18, N-Cyclohexyl-3-(2,3-difluorophenethylamino)-N-(2-(2-(8-hydroxy-2-oxo-1,2-dihydroquinolin-5-yl)ethylamino)ethyl)propanamide bis(trifluoroacetate)]
3 | 0.87 | O=C(CCNCCc1cccc(F)c1)N(CCNCCc1ccc(O)c2[nH]c(=O)ccc12)C1CCCCC1 [Example 19, N-Cyclohexyl-3-(3-fluorophenethylamino)-N-(2-(2-(8-hydroxy-2-oxo-1,2-dihydroquinolin-5-yl)ethylamino)ethyl)propanamide]
4 | 0.83 | O=CNc1cc(CCNCCN(C(=O)CCNCCc2ccccc2)C2CCCCC2)ccc1O [Example 21, N-Cyclohexyl-N-(2-(3-formamido-4-hydroxyphenethylamino)ethyl)-3-(phenethylamino)propanamide]
5 | 0.79 | O=C1COc2c(CCNCCN(C(=O)CCNCCc3ccccc3)C3CCCCC3)ccc(O)c2N1 [Example 23, N-Cyclohexyl-N-(2-(2-(5-hydroxy-3-oxo-3,4-dihydro-2H-benzo[b][1,4]oxazin-8-yl)ethylamino)ethyl)-3-(phenethylamino)propanamide bis(trifluoroacetate)]
6 | 0.85 | O=C1COc2c(CCNCCN(C(=O)CCNCCc3ccccc3)C3CCCCCC3)ccc(O)c2N1 [Example 24, N-Cycloheptyl-N-(2-(2-(5-hydroxy-3-oxo-3,4-dihydro-2H-benzo[b][1,4]oxazin-8-yl)ethylamino)ethyl)-3-(phenethylamino)propanamide bis(trifluoroacetate)]
7 | 0.9 | CCCC[C@@H](C)N(CCNCCc1ccc(O)c2c1OCC(=O)N2)C(=O)CCNCCc1ccccc1 [Example 25, (R)—N-(Hexan-2-yl)-N-(2-(2-(5-hydroxy-3-oxo-3,4-dihydro-2H-benzo[b][1,4]oxazin-8-yl)ethylamino)ethyl)-3-(phenethylamino)propanamide bis(trifluoroacetate)]

Further lines, the compound ahead of its results:

Row | SMILES | β2 Int Act
8 | CCCCN(CCNCCc1ccc(O)c2[nH]c(=O)ccc12)C(=O)CCOCCc1ccccc1 [Example 1, N-Butyl-N-(2-(2-(8-hydroxy-2-oxo-1,2-dihydroquinolin-5-yl)ethylamino)ethyl)-3-phenethoxypropanamide hydrochloride] | 0.9
9 | O=C(CCOCCc1ccccc1)N(CCNCCc1ccc(O)c2[nH]c(=O)ccc12)C1CCCCC1 [Example 2, N-Cyclohexyl-N-(2-(2-(8-hydroxy-2-oxo-1,2-dihydroquinolin-5-yl)ethylamino)ethyl)-3-phenethoxypropanamide] | 0.93
10 | O=C(CCNCCc1cccc(Cl)c1)N(CCNCCc1ccc(O)c2[nH]c(=O)ccc12)C1CCCCCC1 [Example 3, 3-(3-Chlorophenethylamino)-N-cycloheptyl-N-(2-(2-(8-hydroxy-2-oxo-1,2-dihydroquinolin-5-yl)ethylamino)ethyl)propanamide bis(trifluoroacetate)] | 0.82
11 | O=C(CCNCCc1ccc(Cl)cc1)N(CCNCCc1ccc(O)c2[nH]c(=O)ccc12)C1CCCCCC1 [Example 4, 3-(4-Chlorophenethylamino)-N-cycloheptyl-N-(2-(2-(8-hydroxy-2-oxo-1,2-dihydroquinolin-5-yl)ethylamino)ethyl)propanamide bis(trifluoroacetate)] | 0.79
12 | O=C(CCNCCc1cccc(F)c1)N(CCNCCc1ccc(O)c2[nH]c(=O)ccc12)C1CCCCCC1 [Example 5, N-Cycloheptyl-3-(3-fluorophenethylamino)-N-(2-(2-(8-hydroxy-2-oxo-1,2-dihydroquinolin-5-yl)ethylamino)ethyl)propanamide bis(trifluoroacetate)] | 0.82
13 | O=C(CCNCCc1ccc(F)cc1)N(CCNCCc1ccc(O)c2[nH]c(=O)ccc12)C1CCCCCC1 [Example 6, N-Cycloheptyl-3-(4-fluorophenethylamino)-N-(2-(2-(8-hydroxy-2-oxo-1,2-dihydroquinolin-5-yl)ethylamino)ethyl)propanamide bis(trifluoroacetate)] | 0.65
14 | O=C(CCNCCc1ccccc1)N(CCNCCc1ccc(O)c2[nH]c(=O)ccc12)C1CCCCCC1 [Example 7, N-Cycloheptyl-N-(2-(2-(8-hydroxy-2-oxo-1,2-dihydroquinolin-5-yl)ethylamino)ethyl)-3-(phenethylamino)propanamide bis(trifluoroacetate)] | 0.76
15 | Cc1cccc(CCNCCC(=O)N(CCNCCc2ccc(O)c3[nH]c(=O)ccc23)C2CCCCCC2)c1 [Example 8, N-Cycloheptyl-N-(2-(2-(8-hydroxy-2-oxo-1,2-dihydroquinolin-5-yl)ethylamino)ethyl)-3-(3-methylphenethylamino)propanamide bis(trifluoroacetate)] | 0.79
16 | C[C@H](CNCCC(=O)N(CCNCCc1ccc(O)c2[nH]c(=O)ccc12)C1CCCCCC1)c1ccccc1 [Example 9, (S)—N-Cycloheptyl-N-(2-(2-(8-hydroxy-2-oxo-1,2-dihydroquinolin-5-yl)ethylamino)ethyl)-3-(2-phenylpropylamino)propanamide bis(trifluoroacetate)] | 0.91
17 | O=C(CCNCCc1cc(F)cc(F)c1)N(CCNCCc1ccc(O)c2[nH]c(=O)ccc12)C1CCCCCC1 [Example 10, N-Cycloheptyl-3-(3,5-difluorophenethylamino)-N-(2-(2-(8-hydroxy-2-oxo-1,2-dihydroquinolin-5-yl)ethylamino)ethyl)propanamide bis(trifluoroacetate)] | 0.85
18 | CCOc1cccc(CCNCCC(=O)N(CCNCCc2ccc(O)c3[nH]c(=O)ccc23)C2CCCCCC2)c1 [Example 11, N-Cycloheptyl-3-(3-ethoxyphenethylamino)-N-(2-(2-(8-hydroxy-2-oxo-1,2-dihydroquinolin-5-yl)ethylamino)ethyl)propanamide bis(trifluoroacetate)] | 0.65
19 | O=C(CCNCCc1cccc(-c2ccccc2)c1)N(CCNCCc1ccc(O)c2[nH]c(=O)ccc12)C1CCCCCC1 [Example 12, 3-(2-(Biphenyl-3-yl)ethylamino)-N-cycloheptyl-N-(2-(2-(8-hydroxy-2-oxo-1,2-dihydroquinolin-5-yl)ethylamino)ethyl)propanamide bis(trifluoroacetate)] | 0.67
20 | O=C(CCNCCc1cccc(Cl)c1)N(CCNCCc1ccc(O)c2[nH]c(=O)ccc12)C1CCCCC1 [Example 13, 3-(3-Chlorophenethylamino)-N-cyclohexyl-N-(2-(2-(8-hydroxy-2-oxo-1,2-dihydroquinolin-5-yl)ethylamino)ethyl)propanamide bis(trifluoroacetate)] | 0.86
21 | O=C(CCNCCc1ccc(Cl)cc1)N(CCNCCc1ccc(O)c2[nH]c(=O)ccc12)C1CCCCC1 [Example 14, 3-(4-Chlorophenethylamino)-N-cyclohexyl-N-(2-(2-(8-hydroxy-2-oxo-1,2-dihydroquinolin-5-yl)ethylamino)ethyl)propanamide bis(trifluoroacetate)] | 0.88
22 | O=C(CCNCCc1cc(F)cc(F)c1)N(CCNCCc1ccc(O)c2[nH]c(=O)ccc12)C1CCCCC1 [Example 15, N-Cyclohexyl-3-(3,5-difluorophenethylamino)-N-(2-(2-(8-hydroxy-2-oxo-1,2-dihydroquinolin-5-yl)ethylamino)ethyl)propanamide bis(trifluoroacetate)] | 0.88
23 | O=C(CCNCCc1ccc(F)c(F)c1)N(CCNCCc1ccc(O)c2[nH]c(=O)ccc12)C1CCCCC1 [Example 16, N-Cyclohexyl-3-(3,4-difluorophenethylamino)-N-(2-(2-(8-hydroxy-2-oxo-1,2-dihydroquinolin-5-yl)ethylamino)ethyl)propanamide bis(trifluoroacetate)] | 0.85
24 | O=C1Cc2c(CCNCCN(C(=O)CCNCCc3cccc(F)c3)C3CCCCC3)ccc(O)c2N1 [Example 20, N-Cyclohexyl-3-(3-fluorophenethylamino)-N-(2-(2-(7-hydroxy-2-oxoindolin-4-yl)ethylamino)ethyl)propanamide dihydrobromide] | 0.78
